This is an account of results in US20100222269A1, “IMPROVED DERIVATIVES OF AMYLIN” (priority 2007, published 2010).

For the test, the target named is T1, Amylin 3(a) receptor (human calcitonin receptor (CTa) with RAMP-3) (Homo sapiens, UniProt O60896+P30988).
T1 construct: expressed in transfected cells; host or cells: BHK570 (baby hamster kidney) cells, stably transfected, with CRE-luciferase reporter
The test can be described thus: Amylin luciferase assay (CRE-luciferase reporter in BHK Amylin 3(a)//CRE-luc cells). In kind it is cell-based. The method, boiled down: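 BHK570 cells stably expressing human calcitonin receptor (CTa), RAMP-3 and a CRE-luciferase reporter, about 20.000 cells/well, were exposed to standard or sample for 4 h at 37° C in phenol-red-free DMEM with 10% FBS and 10 mM Hepes pH 7,4. Luminescence was read after 30 min with LucLite at room temperature.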

Setting [1] is: BHK570 cells with human calcitonin receptor (CTa), RAMP-3 and CRE-luciferase reporter, 4 hours incubation, read-out: Potency luciferase assay.

Molecules are shown by their SMILES. Where two headings read alike, the source gives them in different places. Starred links: 1 amine or outer side, 2 acyl side, 3 side chain; linkers in the order of their positions; H or OH if unused. Positions of bridges follow the written chain, without caps; N, C: chain ends. Residues, ends and D or L forms follow the SMILES beside them. Groups on a side chain read outwards from the residue. *: point of attachment. X1 = O=C(CCCCCCCCCCCCCCCc1nnn[nH]1)NS(=O)(=O)CCCC(=O)*; C20 diacid = O=C(O)CCCCCCCCCCCCCCCCCCC(=O)*; C18 diacid = O=C(O)CCCCCCCCCCCCCCCCC(=O)*; γGlu = O=C(O)[C@H](CCC(=O)[*:2])N[*:1]; AEEA = NCCOCCOCC(=O)O

T1 sequence (O60896 24-148): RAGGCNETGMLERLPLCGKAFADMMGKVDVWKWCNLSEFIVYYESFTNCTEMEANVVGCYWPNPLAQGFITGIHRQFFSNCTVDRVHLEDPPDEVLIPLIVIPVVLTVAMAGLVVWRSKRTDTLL
T1 sequence (P30988 25-474): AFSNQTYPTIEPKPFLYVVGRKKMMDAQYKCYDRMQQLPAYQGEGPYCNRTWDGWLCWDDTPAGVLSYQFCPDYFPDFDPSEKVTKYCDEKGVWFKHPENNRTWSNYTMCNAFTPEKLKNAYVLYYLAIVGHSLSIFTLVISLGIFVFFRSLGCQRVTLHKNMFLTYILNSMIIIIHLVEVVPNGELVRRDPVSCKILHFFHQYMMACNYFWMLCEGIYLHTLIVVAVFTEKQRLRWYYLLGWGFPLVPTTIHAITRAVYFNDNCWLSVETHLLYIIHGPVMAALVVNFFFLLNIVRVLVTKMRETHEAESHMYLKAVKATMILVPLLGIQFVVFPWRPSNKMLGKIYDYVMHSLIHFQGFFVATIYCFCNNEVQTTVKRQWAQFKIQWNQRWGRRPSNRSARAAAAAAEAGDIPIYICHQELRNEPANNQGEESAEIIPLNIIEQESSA

With `CC[C@H](C)[C@H](NC(=O)[C@H](CCCCNC(=O)COCCOCCNC(=O)COCCOCCNC(=O)CC[C@H](NC(=O)CC[C@H](NC(=O)CC[C@H](NC(=O)CC[C@H](NC(=O)CCCCCCCCCCCCCCCCC(=O)O)C(=O)O)C(=O)O)C(=O)O)C(=O)O)NC(=O)CNC(=O)[C@H](Cc1ccccc1)NC(=O)[C@H](CC(N)=O)NC(=O)[C@H](CC(N)=O)NC(=O)[C@H](CO)NC(=O)[C@H](CO)NC(=O)[C@H](Cc1c[nH]cn1)NC(=O)[C@@H](NC(=O)[C@H](CC(C)C)NC(=O)[C@H](Cc1ccccc1)NC(=O)[C@H](CC(N)=O)NC(=O)[C@H](C)NC(=O)[C@H](CC(C)C)NC(=O)[C@H](CCCNC(=N)N)NC(=O)[C@H](CCC(N)=O)NC(=O)[C@@H](NC(=O)[C@H](C)NC(=O)[C@@H]1CSSC[C@H](NC(=O)[C@@H](N)CCCCN)C(=O)N[C@@H](CC(N)=O)C(=O)N[C@@H]([C@@H](C)O)C(=O)N[C@@H](C)C(=O)N[C@@H]([C@@H](C)O)C(=O)N1)[C@@H](C)O)C(C)C)C(=O)N[C@@H](CC(C)C)C(=O)N1CCC[C@H]1C(=O)N1CCC[C@H]1C(=O)N[C@H](C(=O)N[C@@H](CC(N)=O)C(=O)N[C@H](C(=O)NCC(=O)N[C@@H](CO)C(=O)N[C@@H](CC(N)=O)C(=O)N[C@H](C(=O)N[C@@H](Cc1ccc(O)cc1)C(N)=O)[C@@H](C)O)C(C)C)[C@@H](C)O` [Example 26, N-epsilon25-[2-(2-{2-[2-(2-{2-[(S)-4-carboxy-4-((S)-4-carboxy-4-{(S)-4-carboxy-4-[(S)-4-carboxy-4-(17-carboxyheptadecanoylamino)butyrylamino]butyrylamino}butyrylamino)butyrylamino]ethoxy}ethoxy)acetylamino]ethoxy}ethoxy)acetyl]-[Lys25]-pramlintide (1-37)] (H-KCNTATCATQRLANFLVHSSNNFGK([AEEA-AEEA-γGlu-γGlu-γGlu-γGlu-C18 diacid])ILPPTNVGSNTY-NH2; disulfide 2-7; N-terminus and C-terminus assumed), the EC50 under setting [1] came to 0.3 nM.
Same read-out and setting: the value for `CC[C@H](C)[C@H](NC(=O)[C@H](CCCCNC(=O)CC[C@H](NC(=O)CCCCCCCCCCCCCCCCC(=O)O)C(=O)O)NC(=O)CNC(=O)[C@H](Cc1ccccc1)NC(=O)[C@H](CC(N)=O)NC(=O)[C@H](CC(N)=O)NC(=O)[C@H](CO)NC(=O)[C@H](CO)NC(=O)[C@H](Cc1c[nH]cn1)NC(=O)[C@@H](NC(=O)[C@H](CC(C)C)NC(=O)[C@H](Cc1ccccc1)NC(=O)[C@H](CC(N)=O)NC(=O)[C@H](C)NC(=O)[C@H](CC(C)C)NC(=O)[C@H](CCCNC(=N)N)NC(=O)[C@H](CCC(N)=O)NC(=O)[C@@H](NC(=O)[C@H](C)NC(=O)[C@@H]1CSSC[C@H](NC(=O)[C@@H](N)CCCCN)C(=O)N[C@@H](CC(N)=O)C(=O)N[C@@H]([C@@H](C)O)C(=O)N[C@@H](C)C(=O)N[C@@H]([C@@H](C)O)C(=O)N1)[C@@H](C)O)C(C)C)C(=O)N[C@@H](CC(C)C)C(=O)N1CCC[C@H]1C(=O)N1CCC[C@H]1C(=O)N[C@H](C(=O)N[C@@H](CC(N)=O)C(=O)N[C@H](C(=O)NCC(=O)N[C@@H](CO)C(=O)N[C@@H](CC(N)=O)C(=O)N[C@H](C(=O)N[C@@H](Cc1ccc(O)cc1)C(N)=O)[C@@H](C)O)C(C)C)[C@@H](C)O` [Example 27, N-epsilon25-[(S)-4-carboxy-4-(17-carboxyheptadecanoylamino)butyryl]-[Lys25]-pramlintide (1-37)] (H-KCNTATCATQRLANFLVHSSNNFGK([γGlu-C18 diacid])ILPPTNVGSNTY-NH2; disulfide 2-7; N-terminus assumed) was 0.09 nM; that for `CC(C)C[C@H](NC(=O)[C@H](CC(N)=O)NC(=O)[C@H](CCC(N)=O)NC(=O)[C@H](CO)NC(=O)[C@H](CO)NC(=O)[C@H](CCCNC(=N)N)NC(=O)[C@@H](NC(=O)[C@H](CC(C)C)NC(=O)[C@H](Cc1ccccc1)NC(=O)[C@H](CC(N)=O)NC(=O)[C@H](C)NC(=O)[C@H](CC(C)C)NC(=O)[C@H](CCCNC(=N)N)NC(=O)[C@H](CCC(N)=O)NC(=O)[C@@H](NC(=O)[C@H](C)NC(=O)[C@@H]1CSSC[C@H](NC(=O)[C@@H](N)CCCCN)C(=O)N[C@@H](CCCCNC(=O)CC[C@H](NC(=O)CCCCCCCCCCCCCCCCC(=O)O)C(=O)O)C(=O)N[C@@H]([C@@H](C)O)C(=O)N[C@@H](C)C(=O)N[C@@H]([C@@H](C)O)C(=O)N1)[C@@H](C)O)C(C)C)C(=O)NCC(=O)N1CCC[C@H]1C(=O)N[C@H](C(=O)N[C@@H](CC(C)C)C(=O)N1CCC[C@H]1C(=O)N1CCC[C@H]1C(=O)N[C@H](C(=O)N[C@@H](CC(N)=O)C(=O)N[C@H](C(=O)NCC(=O)N[C@@H](CO)C(=O)N[C@@H](CC(N)=O)C(=O)N[C@H](C(=O)N[C@@H](Cc1ccc(O)cc1)C(N)=O)[C@@H](C)O)C(C)C)[C@@H](C)O)C(C)C` [Example 28, N-epsilon3-[(S)-4-Carboxy-4-(17-carboxyheptadecanoylamino)butyryl]-[Lys3,Arg18,Gln21,Leu23,Val26]-pramlintide (1-37)] (H-KCK([γGlu-C18 diacid])TATCATQRLANFLVRSSQNLGPVLPPTNVGSNTY-NH2; disulfide 2-7) was 0.04 nM; that for `CC[C@H](C)[C@H](NC(=O)[C@@H]1CCCN1C(=O)CNC(=O)[C@H](Cc1ccccc1)NC(=O)[C@H](CC(N)=O)NC(=O)[C@H](CC(N)=O)NC(=O)[C@H](CO)NC(=O)[C@H](CO)NC(=O)[C@H](Cc1c[nH]cn1)NC(=O)[C@@H](NC(=O)[C@H](CC(C)C)NC(=O)[C@H](Cc1ccccc1)NC(=O)[C@H](CC(N)=O)NC(=O)[C@H](C)NC(=O)[C@H](CC(C)C)NC(=O)[C@H](CCCNC(=N)N)NC(=O)[C@H](CCC(N)=O)NC(=O)[C@@H](NC(=O)[C@H](C)NC(=O)[C@@H]1CSSC[C@H](NC(=O)[C@@H](N)CCCCN)C(=O)N[C@@H](CCCCNC(=O)COCCOCCNC(=O)CCCS(=O)(=O)NC(=O)CCCCCCCCCCCCCCCc2nnn[nH]2)C(=O)N[C@@H]([C@@H](C)O)C(=O)N[C@@H](C)C(=O)N[C@@H]([C@@H](C)O)C(=O)N1)[C@@H](C)O)C(C)C)C(=O)N[C@@H](CC(C)C)C(=O)N1CCC[C@H]1C(=O)N1CCC[C@H]1C(=O)N[C@H](C(=O)N[C@@H](CC(N)=O)C(=O)N[C@H](C(=O)NCC(=O)N[C@@H](CO)C(=O)N[C@@H](CC(N)=O)C(=O)N[C@H](C(=O)N[C@@H](Cc1ccc(O)cc1)C(N)=O)[C@@H](C)O)C(C)C)[C@@H](C)O` [Example 30, N-epsilon3-[2-(2-{2-[4-(16-1H-tetrazol-5-yl-hexadecanoylsulfamoyl)butyrylamino]ethoxy}ethoxy)acetyl]-[Lys3]pramlintide (1-37)] (H-KCK([AEEA-X1])TATCATQRLANFLVHSSNNFGPILPPTNVGSNTY-NH2; disulfide 2-7; N-terminus and C-terminus assumed) was 0.1 nM.
Same read-out and setting: the value for `CC[C@H](C)[C@H](NC(=O)[C@@H]1CCCN1C(=O)CNC(=O)[C@H](Cc1ccccc1)NC(=O)[C@H](CC(N)=O)NC(=O)[C@H](CC(N)=O)NC(=O)[C@H](CO)NC(=O)[C@H](CO)NC(=O)[C@H](Cc1c[nH]cn1)NC(=O)[C@@H](NC(=O)[C@H](CC(C)C)NC(=O)[C@H](Cc1ccccc1)NC(=O)[C@H](CC(N)=O)NC(=O)[C@H](C)NC(=O)[C@H](CC(C)C)NC(=O)[C@H](CCCNC(=N)N)NC(=O)[C@H](CCC(N)=O)NC(=O)[C@@H](NC(=O)[C@H](C)NC(=O)[C@@H]1CSSC[C@H](NC(=O)[C@H](CCC(=O)O)NC(=O)[C@H](CCCNC(=N)N)NC(=O)[C@H](CCC(=O)O)NC(=O)[C@H](CCC(=O)O)NC(=O)CCCS(=O)(=O)NC(=O)CCCCCCCCCCCCCCCc2nnn[nH]2)C(=O)N[C@@H](CC(N)=O)C(=O)N[C@@H]([C@@H](C)O)C(=O)N[C@@H](C)C(=O)N[C@@H]([C@@H](C)O)C(=O)N1)[C@@H](C)O)C(C)C)C(=O)N[C@@H](CC(C)C)C(=O)N1CCC[C@H]1C(=O)N1CCC[C@H]1C(=O)N[C@H](C(=O)N[C@@H](CC(N)=O)C(=O)N[C@H](C(=O)NCC(=O)N[C@@H](CO)C(=O)N[C@@H](CC(N)=O)C(=O)N[C@H](C(=O)N[C@@H](Cc1ccc(O)cc1)C(N)=O)[C@@H](C)O)C(C)C)[C@@H](C)O` [Example 31, N-alpha-[4-(16-1H-tetrazol-5-yl-hexadecanoylsulfamoyl)-butyryl]-Glu-Glu-Arg-[Glu1]pramlintide (1-37)] (X1-EERECNTATCATQRLANFLVHSSNNFGPILPPTNVGSNTY-NH2; disulfide 5-10) was 0.09 nM.
`CC(C)C[C@H](NC(=O)[C@H](CC(N)=O)NC(=O)[C@H](CCC(N)=O)NC(=O)[C@H](CO)NC(=O)[C@H](CO)NC(=O)[C@H](CCCNC(=N)N)NC(=O)[C@@H](NC(=O)[C@H](CC(C)C)NC(=O)[C@H](Cc1ccccc1)NC(=O)[C@H](CC(N)=O)NC(=O)[C@H](C)NC(=O)[C@H](CC(C)C)NC(=O)[C@H](CCCNC(=N)N)NC(=O)[C@H](CCC(N)=O)NC(=O)[C@@H](NC(=O)[C@H](C)NC(=O)[C@@H]1CSSC[C@H](NC(=O)[C@H](CCC(=O)O)NC(=O)[C@H](CCCNC(=N)N)NC(=O)[C@H](CCC(=O)O)NC(=O)[C@H](CCC(=O)O)NC(=O)CCCCCCCCCCCCCCCCCCC(=O)O)C(=O)N[C@@H](CCC(N)=O)C(=O)N[C@@H]([C@@H](C)O)C(=O)N[C@@H](C)C(=O)N[C@@H]([C@@H](C)O)C(=O)N1)[C@@H](C)O)C(C)C)C(=O)NCC(=O)N1CCC[C@H]1C(=O)N[C@H](C(=O)N[C@@H](CC(C)C)C(=O)N1CCC[C@H]1C(=O)N1CCC[C@H]1C(=O)N[C@H](C(=O)N[C@@H](CC(N)=O)C(=O)N[C@H](C(=O)NCC(=O)N[C@@H](CO)C(=O)N[C@@H](CC(N)=O)C(=O)N[C@H](C(=O)N[C@@H](Cc1ccc(O)cc1)C(N)=O)[C@@H](C)O)C(C)C)[C@@H](C)O)C(C)C` [Example 35, N-alpha-(19-carboxynonadecanoyl)-Glu-Glu-Arg-[Glu1,Gln3,Arg18,Gln21,Leu23,Val26]-pramlintide (1-37)] ({C20 diacid}-EERECQTATCATQRLANFLVRSSQNLGPVLPPTNVGSNTY-NH2; disulfide 5-10; C-terminus assumed): the EC50 was 0.09 nM.
